Reference: article PMC6361926, “A chemical approach for global protein knockdown from mice to non-human primates” (Cell Discovery, 2019)

Target: Bruton's tyrosine kinase (BTK) (Mus musculus, UniProt P35991)
Assay: PROTAC degradation of BTK in mouse tissues in vivo, immunoblot
Format: cell-based

Bruton's tyrosine kinase (BTK), sequence (P35991 2-659): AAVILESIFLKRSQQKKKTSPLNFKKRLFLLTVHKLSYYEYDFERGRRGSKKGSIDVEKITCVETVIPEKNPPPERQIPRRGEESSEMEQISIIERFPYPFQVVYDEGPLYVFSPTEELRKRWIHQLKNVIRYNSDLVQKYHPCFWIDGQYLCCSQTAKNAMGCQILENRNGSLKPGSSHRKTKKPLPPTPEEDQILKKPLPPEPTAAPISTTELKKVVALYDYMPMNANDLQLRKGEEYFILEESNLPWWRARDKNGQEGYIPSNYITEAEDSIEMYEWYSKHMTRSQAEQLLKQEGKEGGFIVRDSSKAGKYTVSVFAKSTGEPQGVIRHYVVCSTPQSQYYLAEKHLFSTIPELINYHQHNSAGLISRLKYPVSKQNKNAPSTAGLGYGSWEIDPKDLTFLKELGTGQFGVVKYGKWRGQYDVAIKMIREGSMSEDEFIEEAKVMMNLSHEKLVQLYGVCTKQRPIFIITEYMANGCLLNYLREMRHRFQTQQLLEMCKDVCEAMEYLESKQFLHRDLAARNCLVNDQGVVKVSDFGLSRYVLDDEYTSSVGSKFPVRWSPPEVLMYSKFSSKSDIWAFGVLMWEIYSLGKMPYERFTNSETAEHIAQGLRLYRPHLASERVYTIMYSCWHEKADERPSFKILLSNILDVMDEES

**Q.** How did the “PROTAC degradation of BTK in mouse tissues in vivo, immunoblot” value turn out when `Nc1ncnc2c1c(-c1ccc(Oc3ccccc3)cc1)nn2[C@@H]1CCCN(C(=O)CCCc2cn(CCOCCOCCNc3cccc4c3C(=O)N(C3CCC(=O)NC3=O)C4=O)nn2)C1` (stereo partly shown) [P13IS] was run?
**A.** BTK in adipose, thymus, abdominal lymph node, and axillary lymph node was degraded efficiently
